Measured values reported in patent US9695219B2, “Polypeptide having antibacterial activity and angiogenesis-inducing activity and wound-healing drug containing said polypeptide” (priority 2009, dated 2017).
Where a SMILES comes first, the peptide text is derived from it. [ ]: non-standard residue; d: D form.

What was measured:
[1] = system: burn-ulcer model, hairless rats; test: Effect to heal burn ulcers; assay type: in vivo, rat; settings: 0.2 μg/μL (20 μg/wound), once a day
Experimental: A burn model was produced using 7-week old male hairless rats (HWY/slc), and the healing effect of the polypeptides of the present invention was examined. The burn-ulcer model was produced by contacting a red hot iron (at 100° C., φ12 mm) to the back of each rat for 5 seconds under anesthesia with ether to induce a burn. […] On the day after inducing the burn, the necrotic skin was surgically removed to obtain a burn model. After producing the burn model, the test substance was administered onto the wound site, and a covering was used to cover over that (Day 0). Only a covering was used in the Control. Thereafter, the test substance was administered once a day on every measurement day. And, on Day 6 and Day 8, the change of the area of the wound was measured by calculating measured values from a digital caliper and digital images, and the area where the burns had still not healed was measured to calculate the ratio of it relative to the area where the burns were created (Day 0). The concentration of the test substances were individually 0.2 μg/μL (20 μg/wound).

[2] = system: Pseudomonas aeruginosa (clinical strain 9); test: MIC measurement, broth microdilution; assay type: cell-based; settings: 37° C. for 20 hours; tested twice, first/second value where not matched
[3] = system: Pseudomonas aeruginosa (clinical strain 12); test: MIC measurement, broth microdilution; assay type: cell-based; settings: 37° C. for 20 hours; tested twice, first/second value where not matched
Escherichia coli = test: MIC measurement, broth microdilution; assay type: cell-based; settings: 37° C. for 20 hours; tested twice, first/second value where not matched
Experimental: (§1) Further, with respect to not only the above-described strains but also various other strains, the “minimum inhibitory concentration (MIC)” was measured as follows. MIC is the lowest concentration of an agent that may inhibit the growth of a bacterium. MIC is used as a parameter for the efficacy of an antibacterial agent, for the strength of bacterial sensitivity, or the like. The bacteria can grow (proliferate) when the concentration is not higher than MIC, and cannot grow when the concentration is higher than MIC. Its measurement is carried out according to a method defined as a standard method by Japanese Society of Chemotherapy or CLINICAL AND LABORATORY […] (CLSI), but, in this Example, its measurement was carried out by a broth microdilution method in accordance with “M100-S17/M7-A7” (Performance Standards for Antimicrobial Susceptibility Testing; Seventeenth Informational Supplement, Vol. 27 No. 1) published by CLSI on January, 2007. That is, sensitivity test of agents was carried out using a microtiter plate or test tubes.
(§2) The bacteria were cultured in liquid media for 4 to 6 hours, and thereafter absorbances at A600 were measured. Bacterial suspensions were diluted with Mueller-Hinton broth (MHB) according to McFarland #0.5. Each strain was added so as to attain about 10^5 CFU/ml (final concentration). Each peptide was prepared to an optional concentration, and the solutions were serially diluted from the concentration. The polypeptide at each concentration stage was added to a microplate or test tubes, and the bacterial suspension was added thereto. Chloramphenicol, amphotericin B, ciprofloxacin, meropenem (MEPM), ciprofloxacin (CPFX), tobramycin (TOB) and oxacillin (OX) were used as positive controls. The plate was incubated at 37° C. for 20 hours, and the lowest concentration where bacterial growth was inhibited was regarded as the minimum inhibitory concentration.

[4] = system: Staphylococcus epidermidis; test: MIC measurement, broth microdilution; assay type: cell-based; settings: 37° C. for 20 hours; tested twice, first/second value where not matched
Experimental: as §1, §2

Salmonella typhimurium = test: microbe, parasite or virus in culture; assay type: cell-based; settings: 37° C. for 20 hours; tested twice, first/second value where not matched
Experimental: as §1, §2

Bacteroides fragilis = test: microbe, parasite or virus in culture; assay type: cell-based; settings: 37° C. for 20 hours; tested twice, first/second value where not matched
Experimental: as §1, §2

Clostridium ramosum = test: microbe, parasite or virus in culture; assay type: cell-based; settings: 37° C. for 20 hours; tested twice, first/second value where not matched
Experimental: as §1, §2

[5] = system: Normal human dermal fibroblasts (NHDFs); assay type: cell-based
Experimental: Next, the effect of these polypeptides on the growth of human umbilical vein endothelial cells (HUVECs) was studied. A cell growth activity of the polypeptides was examined using Cell Counting Kit (WST-1) available from Dojindo Laboratories. As a negative control (Control), polypeptide-free group was used. Cells (human umbilical vein endothelial cells: HUVECs) were plated in a 96-well plate (0.5×10^4 cells/well/100 μL, serum 1%). About 3 hours after plating the cells, the polypeptides (1, 3, 10, 30 or 100 μg/ml) and FGF (100 ng/ml) as a positive control were individually added thereto in an amount of 100 μL. To the unstimulated group, only a medium was added in an amount of 100 μL. The plate was left to stand in a CO2 incubator for about 48 hours. Thereafter, WST-1 reagent was added to each well in an amount of 20 μL, and then the plate was left to stand in a CO2 incubator for about 2 hours. Absorbances at wavelengths of 450 nm and 620 nm were measured using Wallac 1420 ARVOsx (Program: WST-1). A value of O.D.450-O.D.620 was calculated for each measurement. […] The cell growth activity was evaluated on the basis of the ratio of Net O.D.450 of polypeptide-containing groups relative to Net O.D.450 of the unstimulated group.
Then, the effect on the growth of normal human dermal fibroblasts (NHDFs) was also studied by the same method as described above.

[6] = system: Pseudomonas aeruginosa (clinical strain 6); test: MIC measurement, broth microdilution; assay type: cell-based; settings: 37° C. for 20 hours; tested twice, first/second value where not matched
[7] = Stability in rat serum (HPLC); assay type: in vitro ADME; settings: 37° C.
Experimental: The stability of the polypeptides in serum was evaluated. In human serum (purchased from KAC Co., Ltd.), or in rat serum obtained by collecting blood from a rat, then leaving the collected blood to stand at room temperature followed by centrifugation, each of the peptides was dissolved so as to attain a final concentration of 500 μg/mL, and the obtained solutions were left to stand at 37° C. After leaving to stand for 3 min or 10 min, these solutions were subjected to HPLC chromatogram analysis to detect peaks of the decomposition products, and calculate the ratio of the concentration of the peptides which remained in the solutions relative to the starting concentration. In addition, the half-lives of the peptides in serum were also calculated.

Trichophyton rubrum = assay type: cell-based; settings: 37° C. for 20 hours; tested twice, first/second value where not matched
Experimental: as §1, §2

Fusarium solani = assay type: cell-based; settings: 37° C. for 20 hours; tested twice, first/second value where not matched
Experimental: as §1, §2

With CC[C@H](C)[C@H](NC(=O)[C@H](CC(C)C)NC(=O)[C@H](CCCCN)NC(=O)[C@@H](N)CC(C)C)C(=O)N[C@@H](Cc1ccccc1)C(=O)N[C@@H](CC(C)C)C(=O)N[C@@H](Cc1c[nH]cn1)C(=O)N[C@@H](CCCNC(=N)N)C(=O)N[C@@H](CC(C)C)C(=O)N[C@@H](CCCCN)C(=O)N[C@@H](CCCNC(=N)N)C(=O)N[C@@H](CCSC)C(=O)N[C@@H](CCCNC(=N)N)C(=O)N[C@@H](CCCCN)C(=O)N[C@@H](CCCNC(=N)N)C(=O)N[C@@H](CC(C)C)C(=O)N[C@H](CCCCN)C(=O)N[C@@H](CCCNC(=N)N)C(=O)N[C@@H](CCCCN)C(N)=O [SR-08] (H-LKLIFLHRLKRMRKRL[dK]RK-NH2; N-terminus assumed) the “Healing effect in burn-ulcer model (unhealed area ratio Day 6 and Day 8, FIGS. 14 and 15)” value [1] was “showed a therapeutic effect also in the burn-ulcer model”, the “MIC, Pseudomonas aeruginosa (clinical strain 9)” value [2] was 16/64 and the “MIC, Pseudomonas aeruginosa (clinical strain 12)” value [3] was 16/32. For the same compound, the “MIC, Escherichia coli” value (Escherichia coli) was 32/64, the “MIC, Staphylococcus epidermidis” value [4] was 8> μg/mL and the “MIC, Salmonella typhimurium” value (Salmonella typhimurium) was 8/4. For the same compound, the “MIC, Bacteroides fragilis” value (Bacteroides fragilis) was 64/128, the “MIC, Clostridium ramosum” value (Clostridium ramosum) was 32/16 and the “Concentration above which the polypeptide tended to exhibit toxicity, NHDFs (FIG. 4)” value [5] was > 30000 ng/mL. The “MIC, Pseudomonas aeruginosa (clinical strain 6)” value [6] was 16/32, the “Ratio of peptide remaining relative to the starting concentration, rat serum, 0 min” value ([7]; 500 μg/mL, 0 min) was 100 and the remaining at 0.05 h, 500 μg/mL ([7]; rat, rat serum, 3 min, read-out: Ratio of peptide remaining relative to the starting concentration, rat serum, 3 min) was 87%. For the same compound, the remaining at 10 min, 500 μg/mL ([7]; rat, rat serum, 10 min, read-out: Ratio of peptide remaining relative to the starting concentration, rat serum, 10 min) was 86.9%, the half-life ([7]; rat, serum, 500 μg/mL) was 1 h and the “MIC, Trichophyton rubrum” value (Trichophyton rubrum) was 128/64. The “MIC, Fusarium solani” value (Fusarium solani) was 4/8.
